≈ marks a conversion by molar mass, not a printed value.
How the values were obtained:
Streptococcus sp. = assay: in vitro antibacterial evaluation, MIC by broth dilution; type: cell-based; conditions: broth dilution, 18 hours at 35° C.
How it was run: (§1)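 Inoculum 5×10^5 CFU/mL; concentrations 64 to 0.06 μg/mL; MIC defined as lowest inhibitory level. Conducted by broth dilution under NCCLS guidelines.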

Staphylococcus sp. = assay: as above; type: cell-based; conditions: broth dilution, 18 hours at 35° C.; for MIC Staphylococcus aureus (ATCC 29213): strain ATCC 29213; for MIC Staphylococcus aureus (GC 1131): strain GC 1131; for MIC Staphylococcus aureus (GC 3051): strain GC 3051; for MIC Staphylococcus aureus (GC 3053): strain GC 3053; for MIC Staphylococcus aureus (GC 4541): strain GC 4541; for MIC Staphylococcus aureus (GC 4542): strain GC 4542; for MIC Staphylococcus aureus-SMITH (GC 4543): strain GC 4543; for MIC Staphylococcus aureus (GC 4544): strain GC 4544; for MIC Staphylococcus aureus (GC 4545): strain GC 4545; for MIC Staphylococcus haemolyticus (GC 4546): strain GC 4546; for MIC Coagulase Negative Staphylococcus (GC 4547): strain GC 4547; for MIC Coagulase Negative Staphylococcus (GC 4548): strain GC 4548; for MIC Coagulase Negative Staphylococcus (GC 4549): strain GC 4549; for MIC Coagulase Negative Staphylococcus (GC 4551): strain GC 4551; for MIC Coagulase Negative Staphylococcus (GC 6257): strain GC 6257
How it was run: as §1

Enterococcus sp. = assay: as above; type: cell-based; conditions: broth dilution, 18 hours at 35° C.
How it was run: as §1

[1] = anatomic pathology (histopathology of heart and kidney) in mice; type: in vivo; conditions: CD-1 mice, 20 mg/kg intravenously daily for 9 days, necropsy day 10, microscopic histopathology
Experimental: Samples of tissues from necropsied mice were formalin-fixed, paraffin-embedded, sectioned, stained with hematoxylin and eosin, and examined microscopically. Histopathologic findings were recorded. These findings were subjectively graded on a scale corresponding to slight, mild, moderate, marked and severe as compared to untreated controls.

Escherichia coli = assay: in vitro antibacterial evaluation, MIC by broth dilution; type: cell-based; conditions: 18 hours at 35° C.
How it was run: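 Broth dilution in Muller-Hinton II medium per NCCLS standard M7-A2, with an inoculum of 5×10^5 CFU/mL and antibiotic tested over 64-0.06 μg/mL. MIC was taken as the lowest concentration inhibiting visible growth.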

SMILES: CC(c1ccccc1)C1NC(=O)CNC(=O)C(CO)NC(=O)C(C(O)C2CN(Cc3ccc(C(=O)O)cc3)C(=N)N2C2OC(CO)C(O)C(O)C2O)NC(=O)C(C(O)C2CNC(=N)N2)NC(=O)C(Cc2ccc(OC3OC(CO)C(OC4OC(CO)C(O)C(O)C4O)C(O)C3O)cc2)NC1=O (stereo not drawn) [Example 69, Cyclo[glycyl-β-methylphenylalanyl-O-(4-O-hexopyranosylhexopyranosyl)tyrosyl-3-(2-iminoimidazolidin-4-yl)seryl-3-[1-(4-carboxybenzyl)-2-imino-3-hexopyranosylimidazolidin-4-yl]-serylseryl]]
- MIC Streptococcus agalactiae (GC 4564) (Streptococcus sp.): 128 µg/mL (≈ 89.5 µM)
- MIC Streptococcus pneumoniae (ATCC 6301) (Streptococcus sp.): 128 µg/mL (≈ 89.5 µM)
- MIC Streptococcus pneumoniae (GC 1894) (Streptococcus sp.): 128 µg/mL (≈ 89.5 µM)
- MIC Streptococcus pneumoniae (GC 4565) (Streptococcus sp.): 128 µg/mL (≈ 89.5 µM)
- MIC Streptococcus pyogenes (GC 4563) (Streptococcus sp.): >128 µg/mL
- MIC Streptococcus pneumoniae (ATCC 6301) (Streptococcus sp.; strain ATCC 6301): 128 µg/mL (≈ 89.5 µM)
- MIC Streptococcus pneumoniae (GC 1894) (Streptococcus sp.; strain GC 1894): 128 µg/mL (≈ 89.5 µM)
- MIC Streptococcus pyogenes (GC 4563) (Streptococcus sp.; strain GC 4563): >128 µg/mL
- MIC Streptococcus agalactiae (GC 4564) (Streptococcus sp.; strain GC 4564): 128 µg/mL (≈ 89.5 µM)
- MIC Streptococcus pneumoniae (GC 4565) (Streptococcus sp.; strain GC 4565): 128 µg/mL (≈ 89.5 µM)
- MIC Staphylococcus aureus (ATCC 29213) (Staphylococcus sp.): >128 µg/mL
- MIC Staphylococcus aureus (GC 1131) (Staphylococcus sp.): >128 µg/mL
- MIC Staphylococcus aureus (GC 3051) (Staphylococcus sp.): >128 µg/mL
- MIC Staphylococcus aureus (GC 3053) (Staphylococcus sp.): >128 µg/mL
- MIC Staphylococcus aureus (GC 4541) (Staphylococcus sp.): >128 µg/mL
- MIC Staphylococcus aureus (GC 4542) (Staphylococcus sp.): >128 µg/mL
- MIC Staphylococcus aureus-SMITH (GC 4543) (Staphylococcus sp.): >128 µg/mL
- MIC Staphylococcus aureus (GC 4544) (Staphylococcus sp.): >128 µg/mL
- MIC Staphylococcus aureus (GC 4545) (Staphylococcus sp.): >128 µg/mL
- MIC Staphylococcus haemolyticus (GC 4546) (Staphylococcus sp.): >128 µg/mL
- MIC Coagulase Negative Staphylococcus (GC 4547) (Staphylococcus sp.): >128 µg/mL
- MIC Coagulase Negative Staphylococcus (GC 4548) (Staphylococcus sp.): >128 µg/mL
- MIC Coagulase Negative Staphylococcus (GC 4549) (Staphylococcus sp.): >128 µg/mL
- MIC Coagulase Negative Staphylococcus (GC 4551) (Staphylococcus sp.): >128 µg/mL
- MIC Coagulase Negative Staphylococcus (GC 6257) (Staphylococcus sp.): >128 µg/mL
- MIC Enterococcus avium (GC 4558) (Enterococcus sp.; Enterococcus avium (GC 4558)): 128 µg/mL (≈ 89.5 µM)
- MIC Enterococcus faecalis (ATCC 29212) (Enterococcus sp.; Enterococcus faecalis (ATCC 29212)): >128 µg/mL
- MIC Enterococcus faecalis (GC 4552) (Enterococcus sp.; Enterococcus faecalis (GC 4552)): >128 µg/mL
- MIC Enterococcus faecalis (GC 4553) (Enterococcus sp.; Enterococcus faecalis (GC 4553)): >128 µg/mL
- MIC Enterococcus faecalis (GC 4554) (Enterococcus sp.; Enterococcus faecalis (GC 4554)): >128 µg/mL
- MIC Enterococcus faecalis (GC 6189) (Enterococcus sp.; Enterococcus faecalis (GC 6189)): >128 µg/mL
- MIC Enterococcus faecium (GC 2243) (Enterococcus sp.; Enterococcus faecium (GC 2243)): >128 µg/mL
- MIC Enterococcus faecium (GC 4556) (Enterococcus sp.; Enterococcus faecium (GC 4556)): >128 µg/mL
- MIC Enterococcus faecium (GC 4557) (Enterococcus sp.; Enterococcus faecium (GC 4557)): 128 µg/mL (≈ 89.5 µM)
- MIC Enterococcus avium (GC 4558) (Enterococcus sp.): 128 µg/mL (≈ 89.5 µM)
- MIC Enterococcus faecalis (ATCC 29212) (Enterococcus sp.): >128 µg/mL
- MIC Enterococcus faecalis (GC 2242) (Enterococcus sp.): >128 µg/mL
- MIC Enterococcus faecalis (GC 2691) (Enterococcus sp.): >128 µg/mL
- MIC Enterococcus faecalis (GC 3059) (Enterococcus sp.): >128 µg/mL
- MIC Enterococcus faecalis (GC 4552) (Enterococcus sp.): >128 µg/mL
- MIC Enterococcus faecalis (GC 4553) (Enterococcus sp.): >128 µg/mL
- MIC Enterococcus faecalis (GC 4554) (Enterococcus sp.): >128 µg/mL
- MIC Enterococcus faecalis (GC 6189) (Enterococcus sp.): >128 µg/mL
- MIC Enterococcus faecium (GC 2243) (Enterococcus sp.): >128 µg/mL
- MIC Enterococcus faecium (GC 4556) (Enterococcus sp.): >128 µg/mL
- MIC Enterococcus faecium (GC 4557) (Enterococcus sp.): 128 µg/mL (≈ 89.5 µM)
- MIC Enterococcus faecalis (GC 2242) (Enterococcus sp.; strain GC 2242): >128 µg/mL
- MIC Enterococcus faecalis (GC 2691) (Enterococcus sp.; strain GC 2691): >128 µg/mL
- MIC Enterococcus faecalis (GC 3059) (Enterococcus sp.; strain GC 3059): >128 µg/mL
- Anatomical Pathology (Day 10), Heart [1]: 0
- Anatomical Pathology (Day 10), Kidney [1]: 0
- MIC Escherichia coli (ATCC 25922) (Escherichia coli): >128 µg/mL
- MIC Escherichia coli (GC 4559) (Escherichia coli): >128 µg/mL
- MIC Escherichia coli (GC 4560) (Escherichia coli): >128 µg/mL

SMILES: CCCCCCCN1CC(C(O)C2NC(=O)C(C(O)C3CNC(=N)N3)NC(=O)C(Cc3ccc(OC4OC(CO)C(OC5OC(CO)C(O)C(O)C5O)C(O)C4O)cc3)NC(=O)C(C(C)c3ccccc3)NC(=O)CNC(=O)C(CO)NC2=O)N(C2OC(CO)C(O)C(O)C2O)C1=N (stereo not drawn) [Example 71, Cyclo[glycyl-β-methylphenylalanyl-O-(4-O-hexopyranosylhexopyranosyl)tyrosyl-3-(2-iminoimidazolidin-4-yl)seryl-3-[1-heptyl-3-hexopyranosyl-2-iminoimidazolidin-4-yl]serylseryl]]
- MIC Streptococcus agalactiae (GC 4564) (Streptococcus sp.): >128 µg/mL
- MIC Streptococcus pneumoniae (ATCC 6301) (Streptococcus sp.): >128 µg/mL
- MIC Streptococcus pneumoniae (GC 1894) (Streptococcus sp.): >128 µg/mL
- MIC Streptococcus pneumoniae (GC 4565) (Streptococcus sp.): >128 µg/mL
- MIC Streptococcus pyogenes (GC 4563) (Streptococcus sp.): >128 µg/mL
- MIC Staphylococcus aureus (ATCC 29213) (Staphylococcus sp.): >128 µg/mL
- MIC Staphylococcus aureus (GC 1131) (Staphylococcus sp.): >128 µg/mL
- MIC Staphylococcus aureus (GC 3051) (Staphylococcus sp.): >128 µg/mL
- MIC Staphylococcus aureus (GC 3053) (Staphylococcus sp.): >128 µg/mL
- MIC Staphylococcus aureus (GC 4541) (Staphylococcus sp.): >128 µg/mL
- MIC Staphylococcus aureus (GC 4542) (Staphylococcus sp.): >128 µg/mL
- MIC Staphylococcus aureus-SMITH (GC 4543) (Staphylococcus sp.): >128 µg/mL
- MIC Staphylococcus aureus (GC 4544) (Staphylococcus sp.): >128 µg/mL
- MIC Staphylococcus aureus (GC 4545) (Staphylococcus sp.): >128 µg/mL
- MIC Staphylococcus haemolyticus (GC 4546) (Staphylococcus sp.): >128 µg/mL
- MIC Coagulase Negative Staphylococcus (GC 4547) (Staphylococcus sp.): >128 µg/mL
- MIC Coagulase Negative Staphylococcus (GC 4548) (Staphylococcus sp.): >128 µg/mL
- MIC Coagulase Negative Staphylococcus (GC 4549) (Staphylococcus sp.): >128 µg/mL
- MIC Coagulase Negative Staphylococcus (GC 4551) (Staphylococcus sp.): >128 µg/mL
- MIC Coagulase Negative Staphylococcus (GC 6257) (Staphylococcus sp.): >128 µg/mL
- MIC Enterococcus avium (GC 4558) (Enterococcus sp.): >128 µg/mL
- MIC Enterococcus faecalis (ATCC 29212) (Enterococcus sp.): >128 µg/mL
- MIC Enterococcus faecalis (GC 2242) (Enterococcus sp.): >128 µg/mL
- MIC Enterococcus faecalis (GC 2691) (Enterococcus sp.): >128 µg/mL
- MIC Enterococcus faecalis (GC 3059) (Enterococcus sp.): >128 µg/mL
- MIC Enterococcus faecalis (GC 4552) (Enterococcus sp.): >128 µg/mL
- MIC Enterococcus faecalis (GC 4553) (Enterococcus sp.): >128 µg/mL
- MIC Enterococcus faecalis (GC 4554) (Enterococcus sp.): >128 µg/mL
- MIC Enterococcus faecalis (GC 6189) (Enterococcus sp.): >128 µg/mL
- MIC Enterococcus faecium (GC 2243) (Enterococcus sp.): >128 µg/mL
- MIC Enterococcus faecium (GC 4556) (Enterococcus sp.): >128 µg/mL
- MIC Enterococcus faecium (GC 4557) (Enterococcus sp.): >128 µg/mL
- Anatomical Pathology (Day 10), Heart [1]: 0
- Anatomical Pathology (Day 10), Kidney [1]: 0
- MIC Escherichia coli (ATCC 25922) (Escherichia coli): >128 µg/mL
- MIC Escherichia coli (GC 4559) (Escherichia coli): >128 µg/mL
- MIC Escherichia coli (GC 4560) (Escherichia coli): 128 µg/mL (≈ 91.9 µM)

— patent US6914045B2, “Glycopeptide antibiotics” (Wyeth Holdings Corporation, priority 2001, dated 2005)
